Test results as given in patent US8557300B2 (priority 2005, dated 2013).
Where two headings read alike, the source gives them in different places.

Key:
[1] = test system: mucoid CF clinical isolates of PA; assay type: cell-based, Pseudomonas aeruginosa; conditions: isolates marked by black arrows in FIG. 6
Procedure: (§1) The CFU in the inoculum versus that after a 4 day anaerobic incubation are determined.

[2] = test system: sodAsodB mutant of strain PAO1; conditions: aerobic conditions, LB pH 6.5, 15 mM NO2^−
Procedure: CFU are measured daily and plotted in logarithmic scale. For aerobic samples, strains are grown with vigorous shaking (300 rpm).

[3] = test system: FRD1 in mouse lungs; conditions: FRD1-infected mice, daily 15 mM NO2^− pH 6.5 for 16 days
[4] = test system: FRD1 and FRD1/pmucA in CD1 mouse airways
[5] = test system: mucoid strain FRD1; conditions: FRD1, CF ultrasupernatants pH 6.24, 15 mM NO2^−
Procedure: CFU are determined (n=3) and plotted as the X±SEM vs. time.
Purulent secretions are harvested from the airways of CF lungs which physicians remove at the time of lung transplantation.

[6] = test system: mucoid FRD1 and nonmucoid FRD1/pmucA in mouse lungs
Procedure: CD1 mice are infected with FRD1 or FRD1/pmucA.
CD1 mice are infected with ˜10^6 FRD1 or FRD1/pmucA entrapped in agar beads intratracheally. […] On the fifth day, the mice are sacrificed and the viable bacteria from the lung homogenates are enumerated.
The efficacy of HNO2 to kill strain FRD1 in a PA chronic lung infection model is then determined.

[7] = test system: mucoid CF clinical isolates of PA
Procedure: as §1
(§2) The PA strains used in this study include laboratory strains PAO1 (5), CF isolate FRD1 (6), other sputum isolates from CF patients, and sixteen mucoid isolates. Complementation of the mucA mutant allele of strain FRD1 is achieved by transformation with ptacmucA. Aerobic starter cultures are grown in L-broth (10 g tryptone, 5 g NaCl and 5 g yeast extract, per liter) at 37° C. […] To support anaerobic respiration, KNO3 and/or NaNO2 are added to the medium. The pH of the medium is adjusted with 100 mM sodium phosphate (for pH 6.5) or 100 mM sodium acetate (for pH 5.5). To enumerate viable cells in cultures, colony forming units (CFU) are determined.

[8] = apical, cultured CF airway epithelia; preliminary studies
Procedure: (§3) For experiments measuring transepithelial water flux, the primary cultures of airway epithelia are cultured in a specially humidified incubator, to prevent evaporative water loss from the culture surface. […] BD concentration is measured optically and IL-8 concentrations in basolateral media are measured using commercially available antibody pairs (R&D Systems, Minneapolis, Minn.) according to the manufacturer's instructions. […] At various time points, aliquots of apical liquid are aspirated and stored at −20° C.

[9] = test system: primary cultures of CF airway epithelia; conditions: 15 mM NO2^−, 24 hr
Procedure: as §3

[10] = test system: CF airway epithelial cultures; conditions: 15 mM NO2^−, 24 hr
Procedure: as §3

[11] = test system: human CF airway epithelium; conditions: up to 20 times the dose required to kill mucoid mucA mutant PA, 2 μl apical, pH 6.5, 24 hr
[12] = test system: PA strains isolated from 5 different young CF patients; conditions: 15 mM NO2^−
Procedure: as §2

[13] = test system: mucoid FRD1
Procedure: as §2

[14] = test system: mucoid FRD1 and nonmucoid FRD1/pmucA; conditions: pH 6.5/15 mM NO2^− versus pH 5.5/[…] NO2^−
[15] = test system: anaerobic biofilms of FRD1 and FRD1/pmucA
Procedure: For the confocal laser microscopic analysis of anaerobic FRD1 biofilms, live cells are stained with syto-9, and dead cells are stained with propidium iodide.
An 8-chambered coverslip system (Lab-Tek Inc., Campbell, Calif.) is used for biofilm architecture and viability experiments. […] Bacterial viability staining and image acquisition are accomplished as described previously by Sparkman et al.
Anaerobic biofilms of strains FRD1 and FRD1/pmucA are grown for 1 day in media containing NO3^−, which supports anaerobic respiration.

[16] = test system: Staphylococcus aureus; conditions: slightly acidified
Description: The current last resort for treatment against these antibiotic resistant strains is with vancomycin.

[17] = test system: mucoid FRD1 and nonmucoid FRD1/pmucA; conditions: 15 mM NO2^−, pH 6.5, anaerobic, 5 days
Procedure: The black bars indicate non-mucoid FRD1/pmucA and the gray bars indicate mucoid FRD1.
as §2

[18] = test system: PA sputum isolates CF-1 to CF-5; conditions: CF-1 to CF-4, 15 mM NO2^−, pH 6.5, anaerobic, 1 day
Description: The effect of HNO2 on the killing of sputum isolates from CF patients is also monitored.

[19] = test system: nor CB mutant of FRD1; conditions: pH 6.5
[20] = test system: PA mucA, mucB, mucD, algW, algD, algT(U) mutant strains and clinical isolates
Procedure: Other than mucA, the aforementioned genes are the only reported loci that, when inactivated, allow for mucoid conversion in PA (25-27).
as §2

[21] = test system: FRD1 and FRD1/pmucA
Procedure: The FRD1 and FRD1/pmucA are seeded on LB agar and buffered at the indicated pH.
Plates are incubated for 2 days under anaerobic conditions.

[22] = test system: nonmucoid PAO1, mucoid FRD1, nonmucoid FRD1/pmucA; conditions: pH 6.5, anaerobic
Procedure: The colony forming units (CFU) are enumerated each day and plotted.
Based upon the slightly acidic pH measurements of segmental and subsegmental bronchi from CF transplant patients, discussed above, well-characterized P. aeruginosa strains are grown at pH 6.5 under strict anaerobic conditions.
as §2

[23] = test system: CF airway epithelial cultures
Procedure: Transepithelial short circuit current (Isc in μA/Cm^2) is measured to monitor any change in bioelectric properties.
A primary culture of human airway epithelial cells is performed. […] LDH is measured using a commercially available spectrophotometric assay kit (Biovision Research Products, Mountain View, Calif.) according to the manufacturer's instructions. Then, the bioelectric properties of cultured airway epithelial cells are analyzed.

[24] = test system: FRD1 and FRD1/pmucA; experiment: NO gas exposure of bacterial suspension (FIG. 10); assay type: cell-based, Pseudomonas aeruginosa; conditions: 380 nM solution concentration of NO, LB pH 6.5, 24 hr anaerobic
Procedure: A NO gas at 333 ppm is balanced with pure argon and continuously bubbled for 24 hr anaerobically.
Nitric oxide (NO) gas (200 ppm, 0.4 μM) balanced with Ar is anaerobically delivered to a water-jacketed chamber in which ˜10^8 bacteria/ml are suspended. […] Gas flow is constantly maintained at 3 ml/min. Pure Ar gas is used as a control.

[25] = test system: mucoid FRD1; experiment: Protection of mucoid FRD1 from acidified NO2^− by NO scavengers (FIG. 9); assay type: cell-based, Pseudomonas aeruginosa; conditions: millimolar concentrations (5 mM); LB pH 6.5, 15 mM NO2^−
Description: Line 3 is the FRD1 control bacteria alone.

In the case of gentamycin, the “resistance of 4 clinical isolates” value [1] is reported as “highly resistant”.
With `O=NO` [HNO2, nitrous acid] the HNO2 concentration (pH 6.5/15 mM NO2^− and pH 5.5/[…] NO2^−) was about 10 µM, the HNO2 concentration (pH 6.5 and 15 mM NO2^−) was 10.62 µM and the “sensitivity of sodAsodB mutant” value [2] was “not sensitive”. The “bacteria in lung after long-term treatment” value [3] was “no bacteria detected”, the competitive index ([4]; complemented strain FRD1/pmucA, 6 days) was about 1.0 and the competitive index ([4]; {}) was about 0.2. The “speed of killing compared with L-broth” value [5] was “killed faster”, the “decrease of mucoid FRD1 in lung” value ([6]; pH 5.5) was over 3 logs and the “decrease of mucoid FRD1 in lung” value ([6]; pH 6.5, 15 mM NO2^− intranasal) was over 2 logs. The “decrease of nonmucoid FRD1/pmucA in lung” value ([6]; pH 6.5 and pH 5.5) was “but not nonmucoid FRD1/pmucA, are decreased”.
For `O=NO` [NO2^−, nitrite], the “mucA mutant mucoid isolates showing increased susceptibility” value ([7]; 15 mM NO2^−, pH 6.5, anaerobic) was 78 out of 82, the “number of mucoid isolates with wild-type mucA allele resistant, out of 12” value ([7]; acidified NO2^−) was 8 and the “sensitivity of 4 antibiotic-resistant strains” value ([7]; anaerobic treatment with acidified NO2^−) was “still sensitive”. For the same molecule, the “share of isolates killed by more than 2 logs” value ([7]; mucA mutant mucoid isolates, 15 mM NO2^−, pH 6.5, anaerobic) was 74%, the “half-life of NO2^− on CF airway surfaces” value [8] was about 5 h and the “immune response as release of IL-8” value [9] was “does not cause activation of an immune response”. For the same molecule, the “transepithelial water flux (Jv)” value [10] was “does not alter transepithelial water flux”, the “cytotoxicity by lactate dehydrogenase release” value [11] was “no cytotoxicity” and the “killing of mucoid variants of patients A, B, C and D” value [12] was 1.9-3.1 logs. The LD50 ([13]; mucoid FRD1, pH 6.5, 24 hr anaerobic) was about 3 mM, the bacteria killed ([13]; pH 6.5) was “Ninety to ninety-five” and the “killing on long-term exposure” value ([13]; pH 6.5) was “all organisms are killed”. For the same molecule, the “killing of mucoid bacteria at identical HNO2 concentrations” value [14] was “equal killing”, the biofilm response ([15]; FRD1/pmucA biofilm, acidified NO2^−) was “resistance to acidified NO2^− is clearly evident” and the “death of biofilm organisms” value ([15]; FRD1 biofilm, 15 mM NO2^−, pH 6.5, 2 days) was “nearly complete death of biofilm organisms”. For the same molecule, the “biofilm structure and cell viability relative to control” value ([15]; FRD1 biofilm, 15 mM NO2^−, pH 7.5, 2 days) was “no difference in biofilm structure and cell viability”, the “susceptibility of Staphylococcus aureus incl. MRSA” value [16] was “exhibited susceptibility” and the “viability of nonmucoid FRD1/pmucA after mixed incubation” value [17] was “maintains viability”. The “CFU of mucoid FRD1 after mixed incubation” value ([17]; three bacterial ratios) was < 10^3 CFU/ml, the “viability of mucoid mucA mutant sputum isolates” value [18] was “a sharp decrease in viability” and the “sensitivity of norCB mutant relative to FRD1” value [19] was about 10 fold. For the same molecule, the “LD50 for sensitive strains compared with FRD1” value [20] was “almost identical to that for FRD1”, the “sensitivity of FRD1 derived nonmucoid mutants ΔalgD and ΔalgT(U)” value [20] was “equally sensitive” and the “sensitivity of PDO300 (PAO1 mucA22)” value [20] was “sensitive”. For the same molecule, the “sensitivity of mucB, mucD and algW mutants of PAO1” value [20] was “not sensitive”, the “killing versus pH” value ([21]; FRD1, filter disc 10 μl of 1 M NO2^−, anaerobic 48 hours) was “more effectively at lower pH” and the “killing versus pH” value ([21]; FRD1/pmucA, pH values between 6.0 and 7.5) was “little or no killing”. For the same molecule, the “viability of nonmucoid strains PAO1 and FRD1/pmucA” value ([22]; 15 mM NO2^−, 4 day incubation) was “remained viable”, the rate of killing ([22]; mucoid FRD1, 15 mM NO2^−) was 90 % per day and the “amiloride-sensitive Isc” value ([23]; 15 mM NO2^− treated (control 15.4±1.4, p=0.92)) was 15.7±1.7 μA/cm^2. The “UTP-activated Isc” value ([23]; 15 mM NO2^− treated (control 17.7±3.0, p=0.92)) was 18.1±3.3 μA/cm^2, the “basal transepithelial short circuit current (Isc)” value ([23]; NO2^− at varying concentrations) was “not affected” and the “in vitro sensitivity of organisms recovered from mouse airways after exposure” value ([6]; mouse, in vivo) was “still sensitive”.
With `NC[C@H]1O[C@H](O[C@H]2[C@H](O)[C@@H](O[C@H]3O[C@H](CO)[C@@H](O)[C@H](N)[C@H]3O)[C@H](N)C[C@@H]2N)[C@H](N)C[C@@H]1O` [tobramycin] the “resistance of 4 clinical isolates” value [1] was “highly resistant”.
With `[N]=O` [NO, nitric oxide] the “killing of FRD1 by NO/Ar gas mixture” value [24] was “is killed”.
For `O=[N+]([O-])O` [NO3^−, nitrate, reference compound], the “viability patterns of FRD1, PAO1 and FRD1/pmucA” value ([22]; 15 mM NO3^−) was “no difference in viability patterns is observed”.
In the case of `CC1(C)N([O])C(c2ccc(C(=O)O)cc2)=[N+]([O-])C1(C)C` [carboxy-PTIO], the “protection of FRD1 from killing by acidified NO2^−” value [25] is reported as “strong protective effect”.
With `CC(C)(O/N=C(\C(=O)N[C@@H]1C(=O)N2C(C(=O)[O-])=C(C[n+]3ccccc3)CS[C@H]12)c1csc(N)n1)C(=O)O` [ceftazidime] the “resistance of 4 clinical isolates” value [1] was “highly resistant”.
For `NCC[C@H](O)C(=O)N[C@@H]1C[C@H](N)[C@@H](O[C@H]2O[C@H](CN)[C@@H](O)[C@H](O)[C@H]2O)[C@H](O)[C@H]1O[C@H]1O[C@H](CO)[C@@H](O)[C@H](N)[C@H]1O` [amikacin], the “resistance of 4 clinical isolates” value [1] was “highly resistant”.
